Values of other authors, collected in patent US8735434B2, “Compounds as cannabinoid receptor ligands” (priority 2007, dated 2014).

What was measured:
animal models = settings: acute thermal pain, persistent pain, inflammatory pain, neuropathic pain
rat = rat formalin model of persistent pain
rodent models = settings: neuropathic, incisional, chronic and acute inflammatory pain
microglial = settings: in vitro
[1] = tested on: apolipoprotein E knockout mice
mice = settings: model for post-menopausal osteoporosis

Compound: CN1CCCCC1Cn1cc(C(=O)c2cc([N+](=O)[O-])ccc2I)c2ccccc21 (stereo not drawn) [AM-1241]
- analgesic efficacy (animal models): robust analgesic efficacy

Compound: CCCCCCC(C)(C)c1cc(OC)c([C@@H]2C=C(CO)[C@@H]3C[C@H]2C3(C)C)c(OC)c1 [HU-308]
- antinociceptive response (rat): elicits an antinociceptive response

Compound: COc1ccc2c(c1)c(CCN1CCOCC1)c(C)n2C(=O)c1cccc(Cl)c1Cl [GW405833]
- efficacy in pain models (rodent models): efficacious

Compound: CCCC(C)(C)c1ccc2c(c1)OC(C)(C)[C@@H]1CC=C(C)C[C@@H]21 [JWH-133]
- effect on β-amyloid-induced microglial activation and neurotoxicity (microglial): abrogated

Compound: (−)-Δ^9-Tetrahydrocannabinol [THC]
- progression of atherosclerotic lesions ([1]; low doses): slowed the progression of atherosclerotic lesions

Compound: SR144528
- inhibition of the THC effects on atherosclerotic lesions ([1]; against THC): these effects were inhibited
- effect on osteoclast activity (osteoclast): inhibit osteoclast activity
- block of the JWH-133 effects on microglial activation and neurotoxicity (microglial; against JWH-133): can be blocked
- effect on ovariectomy-induced bone loss (mice): reverse ovariectomy-induced bone loss
